Target: T1, Human GLP-1 receptor stably expressing cells (hGLP-1R/CHO-K1 cells) (Homo sapiens, UniProt P43220)
T1 construct: expressed in transfected cells
Assay: Measurement of GLP-1 receptor agonist activity (cAMP assay)
Format: cell-based
Settings: for Emax: CHO-K1, maximum effect, cAMP with 2 nM human GLP-1 (7-36) = 100%, DMSO only = 0%, read-out: Emax; for EC50: increase in cAMP concentration in hGLP-1R/CHO-K1 cells, 37° C. 1 hour
Procedure: Test Example 1: Measurement of GLP-1 Receptor Agonist Activity
Human GLP-1 receptor stably expressing cells (hGLP-1R/CHO-K1 cells) are cultured in an a-MEM medium (Sigma) containing 10% FBS (Hyclone), 2% GlutaMAX (Gibco), 1% G418 (Nacalai Tesque), and 1% Penicillin-Streptomycin Mixed Solution (Sigma) at 37° C. under 5% CO2 conditions, and recovered by treating a 10 fold diluted 5.0 g/1-trypsin/5.3 mmol/1-EDTA solution (Nacalai Tesque) and cryopreserved.
A DMSO solution containing the compound of the present invention or human GLP-1 (7-36) (Phoenix Pharmaceuticals) is dispensed into a 384-well microplate (Greiner) at 62.5 nL/well, and in addition, 400 μM Forskolin (Nacalai Tesque) is dispensed therein at 7.5 nL/well. Subsequently, the frozen GLP-1 R/CHO-K1 cells are thawed in a thermostatic bath at 37° C., suspended in HBSS buffer (GIBCO) containing 0.1% BSA (Sigma), 20 mM HEPES, 0.1 mM IBMX (Sigma), and 0.2 mM RO20-1724 (Calbiochem) at 2×10^4 cells/mL, and the cell suspension is added at 6 μL/well. The solution was incubated at 37° C. for 1 hour and intracellular cAMP concentration is measured using cAMP Gs dynamic kit (Cisbio) according to the protocol attached to the product. Specifically, a cAMP-d2/Anti-cAMP-Cryptate (1/1) mixture solution is added in a total amount of 6 μL/well, and is incubated at room temperature for 1 hour, and then, time-resolved fluorescence is measured using PHERAstar (BMG Labtech).
Assuming that the cAMP concentration when human GLP-1 (7-36) is dispensed to a final concentration of 2 nM is 100% and the cAMP concentration when only DMSO is dispensed is 0%, the 50% effective concentration (EC50) and the maximum effect (Emax) of the compound of the present invention are calculated using an increase in the cAMP concentration as an index, using TIBCO Spotfire (TIBCO Software). The dilution concentration or the dilution solvent are changed as necessary.
The compounds of the present invention were tested essentially as described above.

T1 sequence (P43220 24-463): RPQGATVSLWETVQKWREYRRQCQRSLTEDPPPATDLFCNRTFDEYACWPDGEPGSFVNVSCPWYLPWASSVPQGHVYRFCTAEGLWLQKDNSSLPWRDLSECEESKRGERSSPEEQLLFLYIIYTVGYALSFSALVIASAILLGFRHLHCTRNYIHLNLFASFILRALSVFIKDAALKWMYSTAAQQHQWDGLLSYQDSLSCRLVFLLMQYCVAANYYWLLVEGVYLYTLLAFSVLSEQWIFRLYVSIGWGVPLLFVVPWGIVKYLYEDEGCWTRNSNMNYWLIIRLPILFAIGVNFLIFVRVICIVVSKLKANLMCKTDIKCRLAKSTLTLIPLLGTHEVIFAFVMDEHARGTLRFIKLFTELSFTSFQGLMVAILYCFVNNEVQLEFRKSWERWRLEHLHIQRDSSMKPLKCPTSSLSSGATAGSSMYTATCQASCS

Row | Emax [%] | EC50 [nM] | SMILES
1 | 115 | 0.038 | C[C@H]1c2nc(OCc3c(F)cc(Cl)cc3F)c(C(F)F)cc2CCN1Cc1nc2ccc(C(=O)O)c(F)c2n1C[C@@H]1CCO1 [Compound I-124]
2 | 123 | 0.0856 | C[C@H]1c2nc(OCc3c(F)cc(F)cc3F)c(C(F)F)cc2CCN1Cc1nc2ccc(C(=O)O)c(F)c2n1C[C@@H]1CCO1 [Compound I-125]
3 | 98 | 2.05 | C[C@H]1c2c(cc(Cl)c3c2OC(C)(c2ccc(Cl)cc2F)O3)CCN1Cc1nc2ccc(C(=O)O)cc2n1C[C@@H]1CCO1 (some centres unmarked) [Compound I-090]
4 | 127 | 0.208 | C[C@H]1c2nc(OCc3ccc(F)cc3)c(Cl)cc2CCN1Cc1nc2ccc(C(=O)O)c(F)c2n1C[C@@H]1CCO1 [Compound I-042]
5 | 108 | 1.63 | C[C@H]1c2c(cc(C(F)(F)F)c3c2O[C@@](C)(c2ccc(Cl)cc2F)O3)CCN1Cc1nc2c(F)cc(C(=O)O)cc2n1C[C@@H]1CCO1 [Compound I-164]
6 | 136 | 0.224 | C[C@H]1c2nc(OCc3ccc(Cl)cc3F)c(C#N)cc2CCN1Cc1nc2ccc(C(=O)O)c(F)c2n1C[C@@H]1CCO1 [Compound I-137]
7 | 130 | 0.308 | COc1cc(Cl)ccc1COc1cc2c(cc1C(F)F)CCN(Cc1nc3ccc(C(=O)O)cc3n1C[C@@H]1CCO1)[C@H]2C [Compound I-006]
8 | 93.3 | 2.33 | C[C@H]1c2c(cc(C(F)(F)F)c3c2OC(C)(c2ccc(Cl)cc2F)O3)CCN1Cc1nc2ccc(C(=O)O)cc2n1C[C@@H]1CCO1 (mixture of isomers) [Compound I-015]
9 | 111 | 0.437 | C[C@H]1c2nc(OCc3c(F)cc(Cl)cc3F)c(Cl)cc2CCN1Cc1nc2ccc(C(=O)O)nc2n1C[C@@H]1CCO1 [Compound I-033]
10 | 137 | 0.04 | COc1cc(Cl)ccc1COc1nc2c(cc1C#N)CCN(Cc1nc3c(Cl)cc(C(=O)O)cc3n1C[C@@H]1CCO1)[C@H]2C [Compound I-187]
11 | 109 | 0.121 | COc1cc(C(=O)O)cc2c1nc(CN1CCc3cc(C#N)c(OCc4ccccc4Cl)nc3[C@@H]1C)n2C[C@@H]1CCO1 [Compound I-145]
12 | 104 | 1.28 | C[C@H]1c2nc(OCc3ccc(OC(F)F)cc3F)c(C(F)F)cc2CCN1Cc1nc2ccc(C(=O)O)cc2n1C[C@@H]1CCO1 [Compound I-059]
13 | 102 | 3.6 | C[C@H]1c2cc(OCc3ccc(Cl)cn3)c(C(F)F)cc2CCN1Cc1nc2ccc(C(=O)O)cc2n1C[C@@H]1CCO1 [Compound I-003]
14 | 99.3 | 0.155 | COc1cc(C(=O)O)cc2c1nc(CN1CCc3cc(C(F)(F)F)c4c(c3[C@@H]1C)O[C@@](C)(c1ccc(Cl)cn1)O4)n2C[C@@H]1CCO1 [Compound I-159]
15 | 122 | 0.0569 | C[C@H]1c2nc(OCc3c(F)cc(Cl)cc3F)c(C#N)cc2CCN1Cc1nc2c(Cl)cc(C(=O)O)cc2n1C[C@@H]1CCO1 [Compound I-185]
16 | 107 | 3.89 | C[C@H]1c2cc(OCc3ccc(F)cc3F)c(C(F)F)cc2CCN1Cc1nc2ccc(C(=O)O)cc2n1C[C@@H]1CCO1 [Compound I-008]
17 | 121 | 0.104 | C[C@H]1c2nc(OCc3ccc(C#N)cc3F)c(C(F)F)cc2CCN1Cc1nc2ccc(C(=O)O)c(F)c2n1C[C@@H]1CCO1 [Compound I-127]
18 | 105 | 0.243 | COc1cc(C(=O)O)cc2c1nc(CN1CCc3cc(C(F)(F)F)c4c(c3[C@@H]1C)O[C@@](C)(c1ccc(Cl)cc1F)O4)n2C[C@@H]1CCO1 [Compound I-170]
19 | 73 | 28.2 | Cc1nonc1COc1nc2c(cc1C(F)(F)F)CCN(Cc1nc3ccc(C(=O)O)cc3n1C[C@@H]1CCO1)[C@H]2C [Compound I-161]
20 | 123 | 0.466 | C[C@H]1c2nc(OCc3ccc(OC(F)F)cc3F)c(C#N)cc2CCN1Cc1nc2c(Cl)cc(C(=O)O)cc2n1C[C@@H]1CCO1 [Compound I-186]
21 | 118 | 0.073 | C[C@H]1c2nc(OCc3ccc(Cl)cc3F)c(C#N)cc2CCN1Cc1nc2c(Cl)cc(C(=O)O)cc2n1C[C@@H]1CCO1 [Compound I-184]
22 | 116 | 0.0331 | C[C@H]1c2nc(OCc3c(F)cc(Cl)cc3F)c(C(F)F)cc2CCN1Cc1nc2c(F)cc(C(=O)O)cc2n1C[C@@H]1CCO1 [Compound I-113]

Row | Emax [%] | EC50 [nM] | SMILES
23 | 99.3 | 0.89 | C[C@H]1c2nc(OCc3cc(Cl)cs3)c(C(F)(F)F)cc2CCN1Cc1nc2ccc(C(=O)O)cc2n1C[C@@H]1CCO1 [Compound I-148]
24 | 118 | 0.0326 | COc1cc(C(=O)O)cc2c1nc(CN1CCc3cc(C#N)c(OCc4ccc(Cl)cc4F)nc3[C@@H]1C)n2C[C@@H]1CCO1 [Compound I-139]
25 | 104 | 0.0809 | COc1cc(C(=O)O)cc2c1nc(CN1CCc3cc(Cl)c(OCc4ccc(Cl)cn4)nc3[C@@H]1C)n2C[C@@H]1CCO1 [Compound I-065]
26 | 88 | 26 | Cc1noc(COc2nc3c(cc2C(F)(F)F)CCN(Cc2nc4ccc(C(=O)O)cc4n2C[C@@H]2CCO2)[C@H]3C)n1 [Compound I-162]
27 | 111 | 0.106 | C[C@H]1c2nc(OCc3c(F)cc(C#N)cc3F)c(C(F)(F)F)cc2CCN1Cc1nc2ccc(C(=O)O)cc2n1C[C@@H]1CCO1 [Compound I-107]
28 | 145 | 0.0637 | C[C@H]1c2nc(OCc3ccc(C#N)cc3F)c(Cl)cc2CCN1Cc1nc2ccc(C(=O)O)c(F)c2n1C[C@@H]1CCO1 [Compound I-041]
29 | 92.3 | 7.35 | O=C(O)c1ccc2nc(CC3CCc4cc(C(F)(F)F)c(OCc5ccc(Cl)cc5F)cc4C3)n(C[C@@H]3CCO3)c2c1 (some centres unmarked) [Compound I-077]
30 | 97 | 0.558 | C[C@H]1c2nc(OCc3ccc(C#N)cc3F)c(C(F)F)cc2CCN1Cc1nc2ccc(C(=O)O)nc2n1C[C@@H]1CCO1 [Compound I-103]
31 | 128 | 0.162 | COc1cc(C(=O)O)cc2c1nc(CN1CCc3cc(C#N)c(OCc4ccc(Cl)cn4)nc3[C@@H]1C)n2C[C@@H]1CCO1 [Compound I-147]
32 | 122 | 0.0208 | COc1cc(C(=O)O)cc2c1nc(CN1CCc3cc(Cl)c(OCc4ccc(Cl)cc4F)nc3[C@@H]1C)n2C[C@@H]1CCO1 [Compound I-076]
33 | 118 | 0.372 | C[C@H]1c2nc(OCc3ccc(F)cc3)c(C(F)F)cc2CCN1Cc1nc2ccc(C(=O)O)c(F)c2n1C[C@@H]1CCO1 [Compound I-117]
34 | 97 | 0.638 | C[C@H]1c2nc(OCc3nc4ccccc4s3)c(C(F)(F)F)cc2CCN1Cc1nc2ccc(C(=O)O)cc2n1C[C@@H]1CCO1 [Compound I-050]
35 | 122 | 0.0591 | COc1cc(C(=O)O)cc2c1nc(CN1CCc3cc(C(F)F)c(OCc4ccc(Cl)cn4)nc3[C@@H]1C)n2C[C@@H]1CCO1 [Compound I-133]
36 | 120 | 0.531 | C[C@H]1c2nc(OCc3ccccc3Cl)c(C#N)cc2CCN1Cc1nc2c(Cl)cc(C(=O)O)cc2n1C[C@@H]1CCO1 [Compound I-181]
37 | 106 | 0.0739 | C[C@H]1c2nc(OCc3ccc(Cl)cc3F)c(Cl)cc2CCN1Cc1nc2c(F)cc(C(=O)O)cc2n1C[C@@H]1CCO1 [Compound I-089]
38 | 124 | 0.0152 | COc1cc(C(=O)O)cc2c1nc(CN1CCc3cc(C(F)(F)F)c(NCc4c(F)cc(Cl)cc4F)nc3[C@@H]1C)n2C[C@@H]1CCO1 [Compound I-171]
39 | 96.3 | 0.87 | COc1cc(C(=O)O)cc2c1nc(CN1CCc3cc(C(F)(F)F)c(OCc4cc(Cl)n(C)n4)nc3[C@@H]1C)n2C[C@@H]1CCO1 [Compound I-155]
40 | 105 | 0.592 | C[C@H]1c2nc(OCc3ccc(F)cc3F)c(Cl)cc2CCN1Cc1nc2ccc(C(=O)O)nc2n1C[C@@H]1CCO1 [Compound I-029]
41 | 101 | 0.0685 | C[C@H]1c2nc(OCc3ccc(C#N)cc3F)c(Cl)cc2CCN1Cc1nc2c(F)cc(C(=O)O)cc2n1C[C@@H]1CCO1 [Compound I-086]
42 | 102 | 16.1 | C[C@H]1c2cc(OCc3ccc(F)cc3)c(C(F)F)cc2CCN1Cc1nc2ccc(C(=O)O)cc2n1C[C@@H]1CCO1 [Compound I-011]
43 | 110 | 0.314 | C[C@H]1c2nc(OCc3ncc(Cl)cc3F)c(C(F)(F)F)cc2CCN1Cc1nc2ccc(C(=O)O)cc2n1C[C@@H]1CCO1 [Compound I-105]

Reference: patent US20260097037A1, “FUSED RING COMPOUND HAVING GLP-1 RECEPTOR AGONIST EFFECT” (Shionogi & Co., Ltd., priority 2022, published 2026)
